Experimental data published in US20240174622A1, “COMPOUND AND RADIOACTIVE LABELING COMPOUND” (NIHON MEDI-PHYSICS CO., LTD., priority 2021, published 2024).

Assays:
[1] = test system: LNCaP tumor-transplanted mouse; experiment: Internal radioactivity distribution using LNCaP tumor-transplanted mouse; format: in vivo
Procedure: (§1) The animal test was performed in compliance with the guidelines of Kyoto University Animal Experiment Committee. Male CB17/IcrJcl-Prkdc^scid mice were purchased from CLEA Japan, Inc. The animals were kept under 12 h/12 h, day/night cycle conditions and fed ad libitum with food and water. LNCaP cells (1.0×10^7 cells/mouse) or PC-3 cells (1.0×10^7 cells/mouse) were suspended in a mixture of PBS and Matrigel manufactured by Corning Life Sciences (1:1, 150 μL) and the suspension was subcutaneously transplanted to the right shoulder of mice under isoflurane anesthesia. Thereafter, the mice were kept for 40 to 60 days.
LNCaP or PC-3 tumor-implanted mice were administered saline solutions (185 kBq, 100 μL) of [^111In]In-PSMA-DA1 or [^111In]In-PSMA-DB from the tail vein (n=3 each). Mice were euthanized 1, 4, 24, 48, 96, and 192 hours after administration. Thereafter, blood and each organ were recovered, and the mass and radioactivity of the organs were measured.
The percentage (% ID) of the radioactivity amount to the administered radioactivity amount (injected dose) is shown as the value (% ID/g) divided by the blood mass or the organ mass (g).
LNCaP tumor-implanted mice prepared by the same method as in Example 1-1 were administered a saline solution (241 kBq/100 μL) of [^111In]In-PtDA from the tail vein (n=3). Mice were euthanized 1, 24, and 48 hours after administration. Thereafter, blood and each organ were recovered, and the mass and radioactivity of the organs were measured.
LNCaP tumor-implanted mice prepared by the same method as in Example 1-1 were administered a saline solution (259 kBq/100 μL each) of each of the radiolabeled compounds in Examples 3-1 to 3-3 or Comparative Examples 2-1 to 2-2 from the tail vein (n=2 to 3). Mice were euthanized 1, 4, 24, 48, 96, and 192 hours after administration. Thereafter, blood and each organ were recovered, and the mass and radioactivity of the organs were measured.
as §1, with “LNCaP cells (4.3×10^6 cells/mouse) or” for “LNCaP cells (1.0×10^7 cells/mouse) or”, “PC-3 cells (3.3×10^6 cells/mouse) were” for “PC-3 cells (1.0×10^7 cells/mouse) were”, “shoulder of CB17/IcrJcl-Prkdc^scid mice under” for “shoulder of mice under”
Mice were euthanized 1, 4, 24, 48, 96, and 192 hours after administration. Thereafter, blood and each organ were recovered, and the mass and radioactivity of the organs were measured.
The results are shown in Table 12 (Mean value±standard deviation, n=3).

[2] = biological target: human serum albumin (HSA) (Homo sapiens, UniProt P02768); experiment: Evaluation of binding to albumin (HSA solution, PBS control); settings: left to stand in HSA solution (45 mg/mL)
human serum albumin (HSA), sequence (P02768 25-609): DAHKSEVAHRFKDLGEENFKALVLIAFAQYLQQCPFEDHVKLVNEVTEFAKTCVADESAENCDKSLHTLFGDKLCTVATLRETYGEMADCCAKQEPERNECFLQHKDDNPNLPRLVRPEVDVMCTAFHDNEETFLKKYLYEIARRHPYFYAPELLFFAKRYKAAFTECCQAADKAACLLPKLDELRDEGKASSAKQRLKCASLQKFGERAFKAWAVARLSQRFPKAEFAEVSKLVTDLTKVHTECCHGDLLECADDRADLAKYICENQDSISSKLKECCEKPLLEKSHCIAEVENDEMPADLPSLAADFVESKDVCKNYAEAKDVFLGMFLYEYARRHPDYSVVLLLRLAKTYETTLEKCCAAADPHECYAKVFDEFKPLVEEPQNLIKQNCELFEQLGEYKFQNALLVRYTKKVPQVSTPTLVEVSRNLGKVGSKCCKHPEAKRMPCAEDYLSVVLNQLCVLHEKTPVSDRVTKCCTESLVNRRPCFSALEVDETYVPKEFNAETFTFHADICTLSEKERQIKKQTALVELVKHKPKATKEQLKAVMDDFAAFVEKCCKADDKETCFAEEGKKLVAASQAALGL
Procedure: Thereafter, the reaction liquids were added to a spin column (Sephadex G-100; manufactured by Cytiva), and centrifuged at 1500×g at 4° C. for 2 minutes. After separation, the radioactivity for each of the column and the eluate was measured with a gamma counter.
When a compound to be evaluated binds to albumin to form a composite, the compound passes through the column because of the increased molecular size.
As in Examples described above, PBS and human albumin were used to evaluate binding to albumin.
Thereafter, the reaction liquid was added to a spin column (Sephadex G-50; manufactured by Cytiva), and centrifuged at 1500×g at 4° C. for 2 minutes. After separation, the radioactivity of the column and the eluate was measured with a gamma counter.

Blood ([1]; 1 h after administration): 2.30 ± 0.28 % ID/g | Brain ([1]; 1 h after administration): 0.05 ± 0.00 % ID/g | Heart ([1]; 1 h after administration): 0.70 ± 0.03 % ID/g | Intestine ([1]; 1 h after administration): 0.47 ± 0.03 % ID/g | Kidney ([1]; 1 h after administration): 214 ± 53.0 % ID/g | LNCaP Tumor ([1]; 1 h after administration): 1.06 ± 0.21 % ID/g | Liver ([1]; 1 h after administration): 0.60 ± 0.07 % ID/g | Lung ([1]; 1 h after administration): 1.75 ± 0.18 % ID/g | Muscle ([1]; 1 h after administration): 0.28 ± 0.06 % ID/g | Pancreas ([1]; 1 h after administration): 0.57 ± 0.14 % ID/g | Spleen ([1]; 1 h after administration): 6.83 ± 1.70 % ID/g | Stomach (% ID) ([1]; 1 h after administration): 0.17 ± 0.02 % ID | Blood ([1]; 4 h after administration): 1.24 ± 0.15 % ID/g | Brain ([1]; 4 h after administration): 0.04 ± 0.00 % ID/g | Heart ([1]; 4 h after administration): 0.47 ± 0.08 % ID/g | Intestine ([1]; 4 h after administration): 0.66 ± 0.08 % ID/g | Kidney ([1]; 4 h after administration): 125 ± 89.2 % ID/g | LNCaP Tumor ([1]; 4 h after administration): 0.69 ± 0.30 % ID/g | Liver ([1]; 4 h after administration): 0.69 ± 0.05 % ID/g | Lung ([1]; 4 h after administration): 1.03 ± 0.13 % ID/g | Muscle ([1]; 4 h after administration): 0.11 ± 0.04 % ID/g | Pancreas ([1]; 4 h after administration): 0.50 ± 0.13 % ID/g | Spleen ([1]; 4 h after administration): 4.76 ± 1.17 % ID/g | Stomach (% ID) ([1]; 4 h after administration): 0.11 ± 0.03 % ID | Blood ([1]; 24 h after administration): 0.20 ± 0.02 % ID/g | Brain ([1]; 24 h after administration): 0.02 ± 0.01 % ID/g | Heart ([1]; 24 h after administration): 0.21 ± 0.01 % ID/g | Intestine ([1]; 24 h after administration): 0.32 ± 0.02 % ID/g | Kidney ([1]; 24 h after administration): 13.5 ± 0.43 % ID/g | LNCaP Tumor ([1]; 24 h after administration): 0.28 ± 0.02 % ID/g | Liver ([1]; 24 h after administration): 0.69 ± 0.05 % ID/g | Lung ([1]; 24 h after administration): 0.34 ± 0.05 % ID/g | Muscle ([1]; 24 h after administration): 0.10 0.00 % ID/g | Pancreas ([1]; 24 h after administration): 0.28 ± 0.03 % ID/g | Spleen ([1]; 24 h after administration): 2.74 ± 0.07 % ID/g | Stomach (% ID) ([1]; 24 h after administration): 0.05 ± 0.00 % ID | Blood ([1]; 48 h after administration): 0.09 ± 0.03 % ID/g | Brain ([1]; 48 h after administration): 0.03 ± 0.01 % ID/g | Heart ([1]; 48 h after administration): 0.18 ± 0.05 % ID/g | Intestine ([1]; 48 h after administration): 0.32 ± 0.06 % ID/g | Kidney ([1]; 48 h after administration): 25.2 ± 17.1 % ID/g | LNCaP Tumor ([1]; 48 h after administration): 0.30 ± 0.11 % ID/g | Liver ([1]; 48 h after administration): 0.80 ± 0.13 % ID/g | Lung ([1]; 48 h after administration): 0.32 ± 0.04 % ID/g | Muscle ([1]; 48 h after administration): 0.10 ± 0.03 % ID/g | Pancreas ([1]; 48 h after administration): 0.38 ± 0.06 % ID/g | Spleen ([1]; 48 h after administration): 2.62 ± 0.79 % ID/g | Stomach (% ID) ([1]; 48 h after administration): 0.09 ± 0.06 % ID | Blood ([1]; 96 h after administration): 0.06 ± 0.02 % ID/g | Brain ([1]; 96 h after administration): 0.03 ± 0.00 % ID/g | Heart ([1]; 96 h after administration): 0.28 ± 0.06 % ID/g | Intestine ([1]; 96 h after administration): 0.16 ± 0.07 % ID/g | Kidney ([1]; 96 h after administration): 15.1 ± 4.76 % ID/g | LNCaP Tumor ([1]; 96 h after administration): 0.32 ± 0.09 % ID/g | Liver ([1]; 96 h after administration): 0.77 ± 0.07 % ID/g | Lung ([1]; 96 h after administration): 0.39 ± 0.06 % ID/g | Muscle ([1]; 96 h after administration): 0.09 ± 0.03 % ID/g | Pancreas ([1]; 96 h after administration): 0.32 ± 0.02 % ID/g | Spleen ([1]; 96 h after administration): 2.47 ± 0.60 % ID/g | Stomach (% ID) ([1]; 96 h after administration): 0.07 ± 0.03 % ID | Blood ([1]; 192 h after administration): 0.01 % ID/g | Brain ([1]; 192 h after administration): 0.03 % ID/g | Heart ([1]; 192 h after administration): 0.22 % ID/g | Intestine ([1]; 192 h after administration): 0.06 % ID/g | Kidney ([1]; 192 h after administration): 2.79 % ID/g | LNCaP Tumor ([1]; 192 h after administration): 0.15 % ID/g | Liver ([1]; 192 h after administration): 0.63 % ID/g | Lung ([1]; 192 h after administration): 0.20 % ID/g | Muscle ([1]; 192 h after administration): 0.07 % ID/g | Pancreas ([1]; 192 h after administration): 0.37 % ID/g | Spleen ([1]; 192 h after administration): 1.05 % ID/g | Stomach (% ID) ([1]; 192 h after administration): 0.02 % ID | radioactivity in the eluate (in words) [2]: low
Structure (SMILES): O=C([O-])CN(CCN(CCc1ccc(NC(=O)CCCCCNC(=O)CCC(=O)NCCCC[C@H](NC(=O)N[C@@H](CCC(=O)O)C(=O)O)C(=O)O)cc1)CCN(CC(=O)[O-])Cc1cccc(C(=O)[O-])n1)Cc1cccc(C(=O)[O-])n1.[111In+3] [[^111In]In-Neunpa-1, reference compound]
